# Values of other authors as cited in US20100076037A1, “Methods of Treating Neuropathic Pain with Agonists of PPAR-gamma” (priority 2006, published 2010).
# Read-outs that look alike come from different tables or passages of the source.
# Columns and labels:
# db/db mice = details: cited from earlier work
# ob/ob mice [1] = details: cited from earlier work
# [2] = cited from earlier work
# [3] = presence and absence of insulin; cited from earlier work
# PPARalpha target protein = details: HepG2; cited from earlier work
# human macrophages = details: 5 microM; cells exposed to high fatty acids and TGs; cited from earlier work
# [4] = test system: arterial smooth muscle cells (SMCs); details: 5 or 10 microM; cited from earlier work
# cytochrome P450 (CYP)4A = details: 0.13 microg/kg; cited from earlier work
# obese Zucker rats = details: cited from earlier work
# [5] = test system: human apoB/CETP double-transgenic mouse; details: tesaglitazar 1 microM/kg/day for 2 weeks; cited from earlier work
# high-fat-fed Wistar rats = details: cited from earlier work
# ob/ob mice [6] = details: cited from earlier work; remark: listed apart in the source
# [7] = test system: apoE*3 Leiden transgenic mice; details: cited from earlier work
# P-glycoprotein = target: T1, P-glycoprotein (Homo sapiens, UniProt P08183); details: cited from earlier work
# T1 construct: host or cells: Caco2 and MDCK-MDR1 monolayers (tie to the P-gp statement is grammatically loose)
# [8] = test system: recombinant human CYPs (CYP1A2, CYP2A6, CYP2C8, CYP2C9, CYP2C19, CYP2D6 and CYP3A4); details: 0.09 to 200 microM; cited from earlier work
# [9] = cited from earlier work; remark: listed apart in the source
# [10] = 1 mg, cited from earlier work
# [11] = healthy males; cited from earlier work
# type 2 diabetic patients = details: cited from earlier work; for decrease of mean fasting plasma glucose, placebo-corrected: 12 weeks
# [12] = test system: non-diabetic but insulin-resistant patients; details: cited from earlier work; for reduction of prevalence of metabolic syndrome: NCEP ATPIII criteria
# diabetic patients = details: human, in vivo; cited from earlier work
# mPPARalpha = mPPARalpha (Mus musculus, UniProt P23204); details: read-out: EC50 reporter gene assay, U2 OS cells; cited from earlier work
# [13] = test system: multidrug resistance protein 2; details: cited from earlier work
# [14] = dose for 25% reduction in fasting plasma glucose, insulin and serum TG
# T1 sequence (P08183 whole entry): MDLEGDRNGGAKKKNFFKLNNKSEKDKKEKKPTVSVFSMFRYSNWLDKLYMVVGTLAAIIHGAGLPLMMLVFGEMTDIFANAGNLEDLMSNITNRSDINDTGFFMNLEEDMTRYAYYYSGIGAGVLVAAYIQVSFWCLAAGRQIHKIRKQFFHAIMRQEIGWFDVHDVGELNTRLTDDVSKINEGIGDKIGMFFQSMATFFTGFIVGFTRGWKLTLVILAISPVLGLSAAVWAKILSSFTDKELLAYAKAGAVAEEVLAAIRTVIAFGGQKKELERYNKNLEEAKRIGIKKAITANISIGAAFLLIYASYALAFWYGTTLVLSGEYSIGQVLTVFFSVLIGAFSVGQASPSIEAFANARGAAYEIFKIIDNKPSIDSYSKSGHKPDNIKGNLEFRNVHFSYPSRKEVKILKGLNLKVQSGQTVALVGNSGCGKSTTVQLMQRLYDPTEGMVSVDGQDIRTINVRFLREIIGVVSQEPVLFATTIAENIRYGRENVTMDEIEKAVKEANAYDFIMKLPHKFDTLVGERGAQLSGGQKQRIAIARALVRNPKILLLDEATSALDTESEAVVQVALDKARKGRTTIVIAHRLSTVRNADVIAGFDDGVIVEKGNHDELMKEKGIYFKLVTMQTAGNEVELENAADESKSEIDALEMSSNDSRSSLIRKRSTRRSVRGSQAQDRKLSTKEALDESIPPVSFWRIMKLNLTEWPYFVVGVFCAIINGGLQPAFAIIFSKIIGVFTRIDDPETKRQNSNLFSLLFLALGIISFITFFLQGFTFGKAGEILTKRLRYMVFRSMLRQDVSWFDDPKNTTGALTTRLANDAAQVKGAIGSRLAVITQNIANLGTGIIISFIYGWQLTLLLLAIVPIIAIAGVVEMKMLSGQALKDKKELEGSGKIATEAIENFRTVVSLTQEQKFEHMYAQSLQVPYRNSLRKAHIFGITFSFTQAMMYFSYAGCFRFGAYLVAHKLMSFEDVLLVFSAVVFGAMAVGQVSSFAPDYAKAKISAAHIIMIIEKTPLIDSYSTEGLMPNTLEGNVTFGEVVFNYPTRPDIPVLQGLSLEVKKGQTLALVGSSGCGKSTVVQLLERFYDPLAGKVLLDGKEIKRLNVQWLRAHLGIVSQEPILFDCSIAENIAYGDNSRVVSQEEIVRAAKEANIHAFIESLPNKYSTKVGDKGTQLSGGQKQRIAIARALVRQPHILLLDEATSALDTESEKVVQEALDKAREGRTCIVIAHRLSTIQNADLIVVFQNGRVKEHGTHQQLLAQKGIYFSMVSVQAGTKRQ
# Chain of mPPARalpha (P23204 whole entry): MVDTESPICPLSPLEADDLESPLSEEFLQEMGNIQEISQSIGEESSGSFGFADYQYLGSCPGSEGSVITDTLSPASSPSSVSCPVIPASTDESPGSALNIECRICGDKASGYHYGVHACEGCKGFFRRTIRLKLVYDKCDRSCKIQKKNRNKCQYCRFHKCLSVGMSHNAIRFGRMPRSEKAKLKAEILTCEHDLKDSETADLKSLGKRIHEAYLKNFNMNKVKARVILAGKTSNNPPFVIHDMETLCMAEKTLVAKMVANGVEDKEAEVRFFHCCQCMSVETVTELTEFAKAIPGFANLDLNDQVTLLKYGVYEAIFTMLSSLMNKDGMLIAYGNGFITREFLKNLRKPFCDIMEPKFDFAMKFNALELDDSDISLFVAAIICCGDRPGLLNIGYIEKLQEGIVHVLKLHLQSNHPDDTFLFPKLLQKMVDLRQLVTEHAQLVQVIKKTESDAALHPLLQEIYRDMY
compound,measurement,setting,value
Cc1oc(-c2ccccc2)nc1CCOc1ccc(CC2SC(=O)NC2=O)c2sccc12 (centres unmarked) [edaglitazone],lowering of free fatty acid levels,db/db mice; 1 mg/kg,16%
same,reduction in serum triglyceride levels,db/db mice; 1 mg/kg,14%
same,lowering of free fatty acid levels,db/db mice; 10 mg/kg,70%
same,reduction in serum triglyceride levels,db/db mice; 10-mg·kg dose,70%
same,lowering of non-starved blood glucose,"db/db mice; 25-mg dose, 12 days",52%
same,hypoglycemia,db/db mice; chronic treatment with 100 mg/kg,did not result in hypoglycemia
same,reduction of AUC(glucose),"ob/ob mice [1]; 1 mg/kg, 14 days",44%
same,reduction in non-starved blood glucose concentration,"ob/ob mice [1]; 0.25 to 10 mg/kg, 12 days",29%
same,serum insulin levels,ob/ob mice [1]; all doses,dose-dependently decreased
same,reduction in non-starved blood glucose concentration,ob/ob mice [1]; higher doses,45%
same,accumulation,[2]; once-daily dosing over 6 weeks,did not accumulate
same,tolerability,[2]; single ascending dose,very well tolerated
same,time to plasma peak levels after dosing,"[2]; single doses 1-160 mg, healthy males",2 to 4 h
same,rate of glucose oxidation,[3],increased
"CCO[C@@H](Cc1ccc(OCCc2ccc(OS(C)(=O)=O)cc2)cc1)C(=O)O [tesaglitazar, (S)-2-ethoxy-3-[4-(2-{4-methanesulfonyloxyphenyl}ethoxy)phenyl]propanoic acid]",potency relative to bezafibrate,PPARalpha target protein,approximately 10 fold
same,"cholesterol efflux, % of the control level",human macrophages,156%
same,decrease of affinity of human LDL for unbound GAGs,[4],3- to 4 fold
same,linoleate-induced production of LDL-binding GAGs,[4],abolished
same,upregulation of CYP4A relative to controls,cytochrome P450 (CYP)4A,15 fold
same,"free fatty acid utilization in adipose tissue, skeletal muscle, liver and heart","obese Zucker rats; 3 micromol/kg/day for 3 weeks, insulin level-clamped",reduced
same,glucose utilization in muscle and fat,obese Zucker rats; 3 micromol/kg/day for 3 weeks,increased
same,measures of whole-body insulin sensitivity,"obese Zucker rats; 3 micromol/kg/day orally, 3 or 4 weeks",consistently improved or normalized
same,normalization of total insulin,"obese Zucker rats; basal conditions, toward lean control",76%
same,normalization of C-peptide,obese Zucker rats; basal conditions,61%
same,normalization of TGs,obese Zucker rats; basal conditions,67%
same,normalization of free fatty acids,obese Zucker rats; basal conditions,15%
same,glucose infusion rate higher than required in lean controls,obese Zucker rats; clamp conditions,13%
same,increase of rate of glucose infusion vs untreated rats,obese Zucker rats; clamp conditions,7.6 fold
same,normalization of C-peptide,obese Zucker rats; clamp conditions,63%
same,normalization of TGs,obese Zucker rats; clamp conditions,72%
same,normalization of free fatty acids,obese Zucker rats; clamp conditions,70%
same,normalization of total insulin,obese Zucker rats; clamp conditions,82%
same,VLDL apolipoprotein (apo)CIII content,obese Zucker rats; fasted obese Zucker rats,reduced
same,increase of plasma TG clearance,obese Zucker rats; fasted obese Zucker rats,490%
same,reduction of rate of hepatic TG production,obese Zucker rats; fasted obese Zucker rats,47%
same,normalization of postprandial excursion in plasma glucose,obese Zucker rats; glucose/TG (1.7/2.0 g/kg) test meal,80%
same,normalization of postprandial excursion in TGs,obese Zucker rats; glucose/TG test meal,92%
same,normalization of postprandial excursion in free fatty acids,obese Zucker rats; glucose/TG test meal,75%
same,normalization of postprandial excursion in insulin,obese Zucker rats; glucose/TG test meal,85%
same,"plasma TGs, apoB100 and plasma CETP activity",[5],reduced
same,basal TG levels,high-fat-fed Wistar rats; 1 micromol/kg/day for 1 week,reduced
same,increase of glucose infusion rate during clamping,high-fat-fed Wistar rats; 1 micromol/kg/day for 1 week,29%
same,reduction of basal plasma insulin levels,high-fat-fed Wistar rats; 1 micromol/kg/day for 1 week,36%
same,increase of uptake of non-esterified fatty acids in white adipose tissue,"high-fat-fed Wistar rats; 1 micromol/kg/day for 3 weeks, basal conditions",52%
same,hyperglycemia,ob/ob mice [6]; 1 micromol/kg/day for 1 week,normalized
same,potency relative to pioglitazone,ob/ob mice [6]; [14],250 fold
same,potency relative to rosiglitazone,ob/ob mice [6]; [14],7 fold
same,reduction of plasma cholesterol levels,"[7]; 0.5 microg/kg of diet, low- or high-fat diets",approximately 21.5%
same,reduction of TG levels,[7]; 0.5 microg/kg of diet,approximately 40%
same,reduction of cross-sectional area of atheromic lesions in the aortic root,"[7]; high-fat fed, 28 weeks",92%
same,reduction of cross-sectional area of atheromic lesions in the aortic root,"[7]; low-fat fed, 16 weeks",65%
same,substrate of P-glycoprotein,P-glycoprotein,not substrates of P-glycoprotein
same,effect on activity of CYP drug metabolizing enzymes,[8],no effect
same,AUC,[9]; 1 mg intravenous,16.2 micromolxh/l
same,AUC,[9]; 1 mg oral,16.1 micromolxh/l
same,adverse events,"[9]; 1 mg po or iv, healthy volunteers",no serious adverse events
same,oral bioavailability,[9]; 1 mg,~100%
same,clearance (Cl),[9]; in vivo,0.16 L/h
same,elimination half-life,[9]; in vivo,~45 h
same,protein-bound,[9]; in vivo,99.9%
same,volume of distribution at steady state (Vdss),[9]; in vivo,9.1 L
same,Cmax,[9]; single 1-mg oral dose,610 nM
same,median Tmax,[9]; single 1-mg oral dose,~0.5 h
same,Tmax,[10]; fasted state,1 h
same,Tmax,[10]; fed state,2.5 h
same,pharmacokinetic interactions with glibenclamide or metformin,[11],No pharmacokinetic interactions
same,"decrease of mean fasting plasma glucose, placebo-corrected",type 2 diabetic patients; 0.1 mg once daily,8.9 mg/dL
same,"decrease of mean fasting plasma glucose, placebo-corrected",type 2 diabetic patients; 0.5 mg,30.3 mg/dL
same,"decrease of mean fasting plasma glucose, placebo-corrected",type 2 diabetic patients; 1.0 mg,41.1 mg/dL
same,greatest increase in serum HDL-cholesterol,type 2 diabetic patients; 1 mg,15.0%
same,"decrease of mean fasting plasma glucose, placebo-corrected",type 2 diabetic patients; 2.0 mg,55.0 mg/dL
same,"decrease of mean fasting plasma glucose, placebo-corrected",type 2 diabetic patients; 3.0 mg,60.9 mg/dL
same,greatest reduction of LDL-cholesterol,type 2 diabetic patients; 3 mg,17.3%
same,greatest reduction of VLDL-cholesterol,type 2 diabetic patients; 3 mg,52.5%
same,maximum reduction in free fatty acids,type 2 diabetic patients; 2-mg dose,36.7%
same,maximum reduction in serum TGs,type 2 diabetic patients; 2-mg dose,41.0%
same,mean increase in serum creatinine,[12]; 0.1 mg,1 µmol/L
same,patients with adverse events,[12]; 0.1 mg,65%
same,reduction in mean hemoglobin level,[12]; 0.1 mg,0.16 mmol/L
same,patients with adverse events,[12]; 0.25 mg,51%
same,reduction of prevalence of metabolic syndrome,[12]; 0.5 mg,49%
same,fall in prevalence of impaired fasting glucose,[12]; 0.5 mg,23%
same,patients with adverse events,[12]; 0.5 mg,67%
same,"mean reduction in fasting serum TGs, placebo-corrected","[12]; 1 mg, 12 weeks",37%
same,reduction of prevalence of metabolic syndrome,[12]; 1.0 mg,45%
same,reduction of AUC for plasma free fatty acids,"[12]; 1 mg, after lipid-rich meal",29%
same,reduction of AUC for plasma insulin,"[12]; 1 mg, after lipid-rich meal",31%
same,reduction of AUC for serum TGs,"[12]; 1 mg, after lipid-rich meal",41%
same,reduction of AUC for serum glycerol,"[12]; 1 mg, after lipid-rich meal",34%
same,reduction of plasma glucose level at 2 h,"[12]; 1 mg, after lipid-rich meal",27%
same,increase in serum HDL-cholesterol,[12]; 1 mg,16%
same,mean reduction in fasting insulin,[12]; 1 mg,35%
same,mean reduction in non-HDL-cholesterol,[12]; 1 mg,15%
same,mean reduction in non-esterified fatty acids,[12]; 1 mg,40%
same,mean reduction in plasma glucose concentration,[12]; 1 mg,0.47 mmol/L
same,reduction in mean hemoglobin level,[12]; 1 mg,0.55 mmol/L
same,fall in prevalence of impaired fasting glucose,[12]; 1.0 mg,59%
same,mean increase in serum creatinine,[12]; 1.0 mg,8 µmol/L
same,patients with adverse events,[12]; 1.0 mg,60%
same,increase in weight,"[12]; 0.5 and 1 mg, 12 weeks",approximately 1 kg
same,increase of ApoA-1,[12]; 1-mg dose,4%
same,reduction of ApoB,[12]; 1-mg dose,12%
same,reduction of ApoB/ApoA-1 ratio,[12]; 1-mg dose,16%
same,reduction of ApoCIII,[12]; 1-mg dose,25%
same,rates of edema,diabetic patients,4.2 to 6.8%
same,EC50,mPPARalpha,32 µM
same,transport in Caco2 and MDCK-MDR1 monolayers,[13],apparently transported by multidrug resistance protein 2
